Results reported in the NIST ThermoML archive (doi:10.1021/acs.jced.6b00121).

Assay: xn = mol fraction of the nth substance listed
Conditions: 100 kPa, Liquid; for viscosity: Falling or rolling sphere viscometry; for mass density: Vibrating tube method

CCCCCCCCCCC [undecane] + CCCCCCO
Conditions	mass density [kg/m3]	viscosity [mPa·s]
283.15 K, x1 = 0.1011	812.86	5.655
283.15 K, x1 = 0.1989	802.1	4.274
283.15 K, x1 = 0.2998	792.19	3.34
283.15 K, x1 = 0.4001	783.5	2.615
283.15 K, x1 = 0.4994	775.87	2.198
283.15 K, x1 = 0.6004	768.89	1.95
283.15 K, x1 = 0.6989	762.82	1.72
283.15 K, x1 = 0.8001	757.18	1.564
283.15 K, x1 = 0.8991	752.28	1.455
283.15 K, x1 = 1	747.78	1.371
288.15 K, x1 = 0.1011	809.29	4.784
288.15 K, x1 = 0.1989	798.49	3.651
288.15 K, x1 = 0.2998	788.53	2.88
288.15 K, x1 = 0.4001	779.81	2.322
288.15 K, x1 = 0.4994	772.18	2.019
288.15 K, x1 = 0.6004	765.18	1.752
288.15 K, x1 = 0.6989	759.1	1.554
288.15 K, x1 = 0.8001	753.47	1.419
288.15 K, x1 = 0.8991	748.57	1.329
288.15 K, x1 = 1	744.06	1.249
293.15 K, x1 = 0.1011	805.71	4.073
293.15 K, x1 = 0.1989	794.85	3.136
293.15 K, x1 = 0.2998	784.85	2.505
293.15 K, x1 = 0.4001	776.12	2.118
293.15 K, x1 = 0.4994	768.47	1.808
293.15 K, x1 = 0.6004	761.46	1.58
293.15 K, x1 = 0.6989	755.38	1.41
293.15 K, x1 = 0.8001	749.75	1.293
293.15 K, x1 = 0.8991	744.85	1.218
293.15 K, x1 = 1	740.35	1.145
298.15 K, x1 = 0.1011	802.1	3.494
298.15 K, x1 = 0.1989	791.2	2.719
298.15 K, x1 = 0.2998	781.16	2.198
298.15 K, x1 = 0.4001	772.4	1.886
298.15 K, x1 = 0.4994	764.75	1.626
298.15 K, x1 = 0.6004	757.73	1.432
298.15 K, x1 = 0.6989	751.65	1.284
298.15 K, x1 = 0.8001	746.02	1.182
298.15 K, x1 = 0.8991	741.12	1.116
298.15 K, x1 = 1	736.64	1.062
303.15 K, x1 = 0.1011	798.47	3.016
303.15 K, x1 = 0.1989	787.52	2.374
303.15 K, x1 = 0.2998	777.45	1.952
303.15 K, x1 = 0.4001	768.67	1.687
303.15 K, x1 = 0.4994	761.01	1.47
303.15 K, x1 = 0.6004	753.98	1.305
303.15 K, x1 = 0.6989	747.89	1.176
303.15 K, x1 = 0.8001	742.27	1.09
303.15 K, x1 = 0.8991	737.38	1.031
303.15 K, x1 = 1	732.93	0.982
308.15 K, x1 = 0.1011	794.81	2.62
308.15 K, x1 = 0.1989	783.82	2.09
308.15 K, x1 = 0.2998	773.71	1.746
308.15 K, x1 = 0.4001	764.91	1.517
308.15 K, x1 = 0.4994	757.24	1.334
308.15 K, x1 = 0.6004	750.21	1.193
308.15 K, x1 = 0.6989	744.12	1.08
308.15 K, x1 = 0.8001	738.5	1.002
308.15 K, x1 = 0.8991	733.62	0.954
308.15 K, x1 = 1	729.23	0.91
313.15 K, x1 = 0.1011	791.12	2.29
313.15 K, x1 = 0.1989	780.08	1.857
313.15 K, x1 = 0.2998	769.94	1.574
313.15 K, x1 = 0.4001	761.13	1.372
313.15 K, x1 = 0.4994	753.45	1.226
313.15 K, x1 = 0.6004	746.41	1.106
313.15 K, x1 = 0.6989	740.32	0.996
313.15 K, x1 = 0.8001	734.71	0.927
313.15 K, x1 = 0.8991	729.84	0.886
313.15 K, x1 = 1	725.53	0.847
318.15 K, x1 = 0.1011	787.39	2.02
318.15 K, x1 = 0.1989	776.31	1.664
318.15 K, x1 = 0.2998	766.14	1.437
318.15 K, x1 = 0.4001	757.31	1.245
318.15 K, x1 = 0.4994	749.63	1.1
318.15 K, x1 = 0.6004	742.59	1.008
318.15 K, x1 = 0.6989	736.5	0.921
318.15 K, x1 = 0.8001	730.9	0.861
318.15 K, x1 = 0.8991	726.05	0.822
318.15 K, x1 = 1	721.82	0.79
323.15 K, x1 = 0.1011	–	1.799
323.15 K, x1 = 0.1989	–	1.528
323.15 K, x1 = 0.2998	–	1.301
323.15 K, x1 = 0.4001	–	1.136
323.15 K, x1 = 0.4994	–	1.011
323.15 K, x1 = 0.6004	–	0.931
323.15 K, x1 = 0.6989	–	0.853
323.15 K, x1 = 0.8001	–	0.801
323.15 K, x1 = 0.8991	–	0.773
323.15 K, x1 = 1	–	0.74
